{"source": "patent US20040072764A1", "about": "“Composition, in particular cosmetic, containing 7-hydroxy dhea and/or 7-keto dhea and at least an isoflavonoid” (priority 2000, published 2004)", "origin": "cited, not measured here", "key": {"[1]": {"settings": "cited from WO 98/40074"}, "fibroblasts": {"test_system": "fibroblasts", "settings": "cited from WO 98/40074"}, "human keratinocytes": {"test_system": "human keratinocytes", "settings": "cited from WO 98/40074"}, "skin": {"test_system": "skin", "settings": "on rats; cited from WO 00/28996"}}}
{"smiles": "C[C@]12CC[C@H](O)CC1=C[C@@H](O)[C@@H]1[C@@H]2CC[C@]2(C)C(=O)CC[C@@H]12", "note": "[7α-hydroxy-DHEA]", "values": [{"measurement": "anti-free radical effects", "setting": "[1]", "value": "had anti-free radical effects"}, {"measurement": "proliferation of the fibroblasts", "setting": "fibroblasts", "value": "increase"}, {"measurement": "viability of the human keratinocytes", "setting": "human keratinocytes", "value": "increase"}, {"measurement": "collagen content of the skin", "setting": "skin", "value": "increased"}, {"measurement": "elastin content of the skin", "setting": "skin", "value": "increased"}, {"measurement": "thickness of the dermis", "setting": "skin", "value": "increased"}]}
